Experimental data: patent publication US12156893B2, “Oral composition comprising lactic acid bacteria for regulating immune responses and methods related thereto” (The Regents of the University of California, priority 2016, dated 2024)

Test system: NK cells
Experiment: Production of cytokines, growth factors and chemokines by NK cells treated with bacterial strains (Bio-Plex 27-plex)
Format: cell-based, human
Parameters: unit not given here
Description: Different strains of probiotic bacteria were tested for their ability to induce IFN-g as well as a number of important cytokines, chemokines and growth factors (Table 1). To assess the levels of each strain used in the combination we used an activation index established in the lab for the NK cells which consisted of the use of a specific ratio of several important cytokines and chemokines that prevented auto-immunity while enhancing significant activation of NK cells under pathologic conditions. Therefore, the strains were selected to: 1) provide regulated activation of NK cells when no activation of NK cells is desired; 2) when activated by cytokines and/or cross-linking of the important receptors which occurs during functional activation of NK cells in cancer is to induce maximal activation of NK cells; and 3) provide diversity for gut microflora. These criteria allow us to use bacteria to regulate the gut mucosal immunity in such a way that we will only increase NK activation when needed during infections or malignancies. In other words when there is no need for function of NK cells bacteria will regulate NK function to not induce inflammation; however, during need which occurs under the pathological conditions NK cells are triggered to function at the maximal levels. Such coordinated regulation of NK cell function should be effective in halting unwanted inflammation while providing effective and maximal immunity during disease.
Written informed consents, approved by UCLA Institutional Review Board (IRB), were obtained from healthy blood donors, and all procedures were approved by the UCLA-IRB. Peripheral blood was separated using Ficoll-Hypaque centrifugation, after which the white, cloudy layer, containing peripheral blood mononuclear cells (PBMC), was harvested, washed and re-suspended in RPMI 1640 (Invitrogen by Life Technologies, CA) supplemented with 10% FBS and plated on plastic tissue culture dishes. After 1-2 hours of incubation, non-adherent, human peripheral blood lymphocytes (PBL) were collected. NK cells were negatively selected and isolated from PBLs using the EasySep® Human NK cell enrichment kit purchased from Stem Cell Technologies (Vancouver, BC, Canada). Isolated NK cells were stained with anti-CD16 antibody, to measure NK cell purity using flow cytometric analysis. The isolated NK cell population was greater than 90% purity. Purified NK cells were cultured in RPMI Medium 1640 supplemented with 10% FBS (Gemini Bio-Products, CA), 1% antibiotic antimycotic, 1% sodium pyruvate, and 1% MEM non-essential amino acids (Invitrogen, Life Technologies, CA).
Purified NK cells from healthy donors were left untreated or treated with IL-2 (1000 units/ml) or the combination of anti-CD16 mAb (3 μg/ml) and IL-2 (1000 units/ml) in the presence or absence of bacterial strains at 1:5 ratio (NK cell: bacteria) for 12-18 hours. Afterwards, the levels of cytokines, growth factors and chemokines were determined using Bio-Plex Pro Human Cytokine 27-plex Assay Kit.

[1] = Treatment NK (no activation), bacteria 1:5 NK cell:bacteria, 12-18 hours
[2] = Treatment NK + IL-2 (1000 units/ml), bacteria 1:5, 12-18 hours
[3] = Treatment NK + IL-2 + anti-CD16 mAb (3 μg/ml), bacteria 1:5, 12-18 hours

Substance: Bifidobacterium breve [B. breve]
- Eotaxin [1]: 15
- G-CSF [1]: 363
- GM-CSF [1]: 101
- IFN-γ [1]: 99
- IL-1B [1]: 200
- IL-1ra [1]: 196
- IL-6 [1]: 9726
- IL-8 [1]: 3975
- IL-10 [1]: 127
- IL-12p70 [1]: 10
- IL-13 [1]: 5
- IL-17 [1]: 53
- IP-10 [1]: 32
- MCP-1 [1]: 265
- RANTES [1]: 1662
- TNF-α [1]: 2904
- Eotaxin [2]: 22
- G-CSF [2]: 138
- GM-CSF [2]: 127
- IFN-γ [2]: 284
- IL-1B [2]: 165
- IL-1ra [2]: 470
- IL-6 [2]: 3402
- IL-8 [2]: 1912
- IL-10 [2]: 36
- IL-12p70 [2]: 21
- IL-13 [2]: 9
- IL-17 [2]: 57
- IP-10 [2]: 35
- MCP-1 [2]: 72
- RANTES [2]: 1988
- TNF-α [2]: 1868
- Eotaxin [3]: 29
- G-CSF [3]: 289
- GM-CSF [3]: 180
- IFN-γ [3]: 844
- IL-1B [3]: 421
- IL-1ra [3]: 565
- IL-6 [3]: 7261
- IL-8 [3]: 4929
- IL-10 [3]: 68
- IL-12p70 [3]: 26
- IL-13 [3]: 28
- IL-17 [3]: 72
- IP-10 [3]: 55
- MCP-1 [3]: 153
- RANTES [3]: 3934
- TNF-α [3]: 1498

Substance: Bifidobacterium infantis [B. infantis]
- Eotaxin [1]: 18
- G-CSF [1]: 145
- GM-CSF [1]: 123
- IFN-γ [1]: 275
- IL-1B [1]: 249
- IL-1ra [1]: 179
- IL-6 [1]: 6136
- IL-8 [1]: 4265
- IL-10 [1]: 55
- IL-12p70 [1]: 66
- IL-13 [1]: 1
- IL-17 [1]: 56
- IP-10 [1]: 57
- MCP-1 [1]: 451
- RANTES [1]: 2234
- TNF-α [1]: 5728
- Eotaxin [2]: 19
- G-CSF [2]: 190
- GM-CSF [2]: 163
- IFN-γ [2]: 3073
- IL-1B [2]: 422
- IL-1ra [2]: 459
- IL-6 [2]: 6618
- IL-8 [2]: 5090
- IL-10 [2]: 41
- IL-12p70 [2]: 115
- IL-13 [2]: 19
- IL-17 [2]: 72
- IP-10 [2]: 113
- MCP-1 [2]: 382
- RANTES [2]: 3225
- TNF-α [2]: 5103
- Eotaxin [3]: 32
- G-CSF [3]: 151
- GM-CSF [3]: 178
- IFN-γ [3]: 1250
- IL-1B [3]: 365
- IL-1ra [3]: 434
- IL-6 [3]: 3927
- IL-8 [3]: 3557
- IL-10 [3]: 34
- IL-12p70 [3]: 47
- IL-13 [3]: 22
- IL-17 [3]: 65
- IP-10 [3]: 88
- MCP-1 [3]: 360
- RANTES [3]: 2646
- TNF-α [3]: 5287

Substance: Lactobacillus acidophilus [L. acidophilus]
- Eotaxin [1]: 16
- G-CSF [1]: 141
- GM-CSF [1]: 110
- IFN-γ [1]: 366
- IL-1B [1]: 819
- IL-1ra [1]: 181
- IL-6 [1]: 10357
- IL-8 [1]: 6879
- IL-10 [1]: 62
- IL-12p70 [1]: 299
- IL-13 [1]: 5
- IL-17 [1]: 63
- IP-10 [1]: 77
- MCP-1 [1]: 400
- RANTES [1]: 2553
- TNF-α [1]: 6858
- Eotaxin [2]: 21
- G-CSF [2]: 89
- GM-CSF [2]: 127
- IFN-γ [2]: 1329
- IL-1B [2]: 335
- IL-1ra [2]: 487
- IL-6 [2]: 2095
- IL-8 [2]: 1116
- IL-10 [2]: 17
- IL-12p70 [2]: 136
- IL-13 [2]: 8
- IL-17 [2]: 63
- IP-10 [2]: 51
- MCP-1 [2]: 112
- RANTES [2]: 2353
- TNF-α [2]: 1151
- Eotaxin [3]: 31
- G-CSF [3]: 102
- GM-CSF [3]: 199
- IFN-γ [3]: 2715
- IL-1B [3]: 654
- IL-1ra [3]: 493
- IL-6 [3]: 3684
- IL-8 [3]: 2004
- IL-10 [3]: 24
- IL-12p70 [3]: 155
- IL-13 [3]: 23
- IL-17 [3]: 73
- IP-10 [3]: 69
- MCP-1 [3]: 289
- RANTES [3]: 3999
- TNF-α [3]: 5663

Substance: Streptococcus thermophilus [S. thermophilus]
- Eotaxin [1]: 40
- G-CSF [1]: 149
- GM-CSF [1]: 131
- IFN-γ [1]: 785
- IL-1B [1]: 1381
- IL-1ra [1]: 229
- IL-6 [1]: 10222
- IL-8 [1]: 3326
- IL-10 [1]: 63
- IL-12p70 [1]: 515
- IL-13 [1]: 9
- IL-17 [1]: 74
- IP-10 [1]: 64
- MCP-1 [1]: 502
- RANTES [1]: 2580
- TNF-α [1]: 18892
- Eotaxin [2]: 21
- G-CSF [2]: 87
- GM-CSF [2]: 124
- IFN-γ [2]: 1188
- IL-1B [2]: 390
- IL-1ra [2]: 465
- IL-6 [2]: 1773
- IL-8 [2]: 1341
- IL-10 [2]: 17
- IL-12p70 [2]: 132
- IL-13 [2]: 9
- IL-17 [2]: 65
- IP-10 [2]: 45
- MCP-1 [2]: 169
- RANTES [2]: 2197
- TNF-α [2]: 2413
- Eotaxin [3]: 29
- G-CSF [3]: 101
- GM-CSF [3]: 177
- IFN-γ [3]: 2594
- IL-1B [3]: 642
- IL-1ra [3]: 434
- IL-6 [3]: 2475
- IL-8 [3]: 1841
- IL-10 [3]: 23
- IL-12p70 [3]: 163
- IL-13 [3]: 15
- IL-17 [3]: 57
- IP-10 [3]: 58
- MCP-1 [3]: 332
- RANTES [3]: 2097
- TNF-α [3]: 4917
